Data reported in PubChem BioAssay (NCI).
Values joined by “and” are separate entries in the source; they are usually repeats but may differ in a detail not shown here. Identical values can stand only once.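 Exposure lasted 48 hours, with cells grown in 96-well plates and compounds tested at five concentrations. GI50: concentration for 50% inhibition of growth. Definition used: TGI = concentration required for complete inhibition of growth.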

Tests used:
Test in all cases: NCI-60 cell line screen, 48 h
OVCAR-5 ovarian = tested on: OVCAR-5 ovarian
TK-10 renal = tested on: TK-10 renal
UO-31 renal = tested on: UO-31 renal
RXF 393 renal = tested on: RXF 393 renal
HOP-62 NSCLC = tested on: HOP-62 NSCLC
A549 NSCLC = tested on: A549 NSCLC
A498 renal = tested on: A498 renal
KM12 colon = tested on: KM12 colon
IGROV1 ovarian = tested on: IGROV1 ovarian
MDA-N = tested on: MDA-N

## [N-]=[N+]=NC1(c2ccccc2)C(=O)Nc2ccccc2C1=O (stereo unspecified)
OVCAR-5 ovarian
  TGI: > 100 µM
TK-10 renal
  TGI: > 100 µM
UO-31 renal
  TGI: 73.8 µM
RXF 393 renal
  TGI: 75.9 µM
HOP-62 NSCLC
  TGI: > 100 µM
A549 NSCLC
  TGI: > 100 µM
A498 renal
  TGI: 43.4 µM
KM12 colon
  TGI: > 100 µM
IGROV1 ovarian
  TGI: > 100 µM
MDA-N
  TGI: > 100 µM

## CCOC(=O)c1cc(-c2ccc(OC)c(OC)c2)c[nH]1
OVCAR-5 ovarian
  TGI: > 10 µM
TK-10 renal
  TGI: > 10 µM
UO-31 renal
  TGI: > 10 µM
RXF 393 renal
  TGI: > 10 µM
HOP-62 NSCLC
  TGI: > 10 µM
A549 NSCLC
  TGI: > 10 µM
A498 renal
  TGI: > 10 µM
KM12 colon
  TGI: > 10 µM
IGROV1 ovarian
  TGI: > 10 µM
MDA-N
  TGI: > 10 µM

## O=S1(=O)NNC(=NCc2ccc(F)cc2)c2ccccc21
OVCAR-5 ovarian
  TGI: > 100 µM
UO-31 renal
  TGI: > 100 µM
RXF 393 renal
  TGI: > 69.3 µM
HOP-62 NSCLC
  TGI: > 100 µM
A549 NSCLC
  TGI: > 100 µM
A498 renal
  TGI: > 100 µM
KM12 colon
  TGI: > 100 µM
IGROV1 ovarian
  TGI: > 100 µM
MDA-N
  TGI: > 100 µM

## CCOC(=O)CCC(NC(=O)OCc1ccccc1)C(=O)NNC(=O)OC(C)(C)C (stereo unspecified)
OVCAR-5 ovarian
  TGI: > 100 µM
TK-10 renal
  TGI: > 100 µM
UO-31 renal
  TGI: > 100 µM
RXF 393 renal
  TGI: > 100 µM
HOP-62 NSCLC
  TGI: > 100 µM
A549 NSCLC
  TGI: > 100 µM
A498 renal
  TGI: > 100 µM
KM12 colon
  TGI: > 100 µM
IGROV1 ovarian
  TGI: > 100 µM
MDA-N
  TGI: > 100 µM

## Oc1ccc2ccccc2c1-c1nnc(CCCCCCCCc2nnc(-c3c(O)ccc4ccccc34)o2)o1
OVCAR-5 ovarian
  GI50: 19.9 µM
  TGI: 25 µM and > 100 µM
TK-10 renal
  GI50: > 25 µM
  TGI: > 100 µM
UO-31 renal
  GI50: 0.93 µM
  TGI: 19.2 µM and 15.4 µM
RXF 393 renal
  GI50: 1.39 µM
  TGI: 7.93 µM and 31.8 µM
HOP-62 NSCLC
  GI50: > 25 µM
  TGI: > 25 µM and 12.4 µM
A549 NSCLC
  TGI: 25 µM and 32.9 µM
A498 renal
  GI50: 14.2 µM
  TGI: 25 µM and 41 µM
KM12 colon
  GI50: 3.96 µM
  TGI: 25 µM and > 100 µM
IGROV1 ovarian
  GI50: 11.6 µM
  TGI: 25 µM and 98.6 µM
MDA-N
  GI50: 2.67 µM

## Cc1[nH]c(=O)nc(N/N=C/c2ccc(Cl)c(Cl)c2)c1C(=O)Nc1ccc(Cl)c(Cl)c1
OVCAR-5 ovarian
  TGI: > 46.3 µM
TK-10 renal
  TGI: 28 µM
UO-31 renal
  TGI: > 56.2 µM
RXF 393 renal
  TGI: 32.7 µM
HOP-62 NSCLC
  TGI: 24.8 µM
A549 NSCLC
  TGI: 38.9 µM
A498 renal
  TGI: 7.92 µM
KM12 colon
  TGI: > 22.2 µM
IGROV1 ovarian
  TGI: > 39.2 µM
MDA-N
  TGI: 39.7 µM

## O=C1CSC2(CC(/C=C/C=C/c3ccccc3)=NN2c2cccc(S(=O)(=O)O)c2)N1c1nc2ccccc2s1 (stereo unspecified)
OVCAR-5 ovarian
  TGI: > 100 µM
TK-10 renal
  TGI: > 100 µM
UO-31 renal
  TGI: > 100 µM
RXF 393 renal
  TGI: > 100 µM
A549 NSCLC
  TGI: > 100 µM
A498 renal
  TGI: > 100 µM
KM12 colon
  TGI: > 100 µM
IGROV1 ovarian
  TGI: > 100 µM
MDA-N
  TGI: > 100 µM

## OC(CC(c1ccccc1)c1ccc(Cl)cc1)c1ccc(Cl)cc1 (stereo unspecified)
OVCAR-5 ovarian
  TGI: 62 µM
TK-10 renal
  TGI: > 100 µM
UO-31 renal
  TGI: > 100 µM
RXF 393 renal
  TGI: 65.8 µM
HOP-62 NSCLC
  TGI: 91.4 µM
A549 NSCLC
  TGI: > 100 µM
A498 renal
  TGI: 69.1 µM
KM12 colon
  TGI: > 100 µM
IGROV1 ovarian
  TGI: > 100 µM
MDA-N
  TGI: > 100 µM

## NC(N)=N/N=C(\c1ccc(Cl)cc1)C1CC1
OVCAR-5 ovarian
  TGI: 39.3 µM
TK-10 renal
  TGI: 29.9 µM
UO-31 renal
  TGI: 79.9 µM
RXF 393 renal
  TGI: > 100 µM
HOP-62 NSCLC
  TGI: 37.7 µM
A549 NSCLC
  TGI: > 100 µM
A498 renal
  TGI: 32.3 µM
KM12 colon
  TGI: 35.8 µM
IGROV1 ovarian
  TGI: 31.8 µM
MDA-N
  TGI: 30.8 µM

## CC(=O)Oc1ccc2cc(Oc3ccc(Cl)cc3)c(=O)oc2c1
OVCAR-5 ovarian
  TGI: > 100 µM
TK-10 renal
  TGI: > 100 µM
UO-31 renal
  TGI: > 100 µM
RXF 393 renal
  TGI: > 100 µM
HOP-62 NSCLC
  TGI: > 100 µM
A549 NSCLC
  TGI: 94 µM
A498 renal
  TGI: > 100 µM
KM12 colon
  TGI: > 100 µM
IGROV1 ovarian
  TGI: > 100 µM
MDA-N
  TGI: 78.8 µM
